Measured values: patent publication US8778966B2, “Quinolinone derivatives as PARP and tank inhibitors” (Janssen Pharmaceutica, NV, priority 2007, dated 2014)
Where two headings read alike, the source gives them in different places.

Experiments:
[1] = biological target: T1, Human PARP-1 enzyme (Homo sapiens, UniProt P09874); assay: In vitro Scintillation Proximity Assay (SPA) for PARP-1 inhibitory activity; type: biochemical; conditions: read-out: in vitro SPA assay PARP-1 pIC50 (converted)
T1 construct: purchased Trevigen
T1 sequence (P09874 whole entry): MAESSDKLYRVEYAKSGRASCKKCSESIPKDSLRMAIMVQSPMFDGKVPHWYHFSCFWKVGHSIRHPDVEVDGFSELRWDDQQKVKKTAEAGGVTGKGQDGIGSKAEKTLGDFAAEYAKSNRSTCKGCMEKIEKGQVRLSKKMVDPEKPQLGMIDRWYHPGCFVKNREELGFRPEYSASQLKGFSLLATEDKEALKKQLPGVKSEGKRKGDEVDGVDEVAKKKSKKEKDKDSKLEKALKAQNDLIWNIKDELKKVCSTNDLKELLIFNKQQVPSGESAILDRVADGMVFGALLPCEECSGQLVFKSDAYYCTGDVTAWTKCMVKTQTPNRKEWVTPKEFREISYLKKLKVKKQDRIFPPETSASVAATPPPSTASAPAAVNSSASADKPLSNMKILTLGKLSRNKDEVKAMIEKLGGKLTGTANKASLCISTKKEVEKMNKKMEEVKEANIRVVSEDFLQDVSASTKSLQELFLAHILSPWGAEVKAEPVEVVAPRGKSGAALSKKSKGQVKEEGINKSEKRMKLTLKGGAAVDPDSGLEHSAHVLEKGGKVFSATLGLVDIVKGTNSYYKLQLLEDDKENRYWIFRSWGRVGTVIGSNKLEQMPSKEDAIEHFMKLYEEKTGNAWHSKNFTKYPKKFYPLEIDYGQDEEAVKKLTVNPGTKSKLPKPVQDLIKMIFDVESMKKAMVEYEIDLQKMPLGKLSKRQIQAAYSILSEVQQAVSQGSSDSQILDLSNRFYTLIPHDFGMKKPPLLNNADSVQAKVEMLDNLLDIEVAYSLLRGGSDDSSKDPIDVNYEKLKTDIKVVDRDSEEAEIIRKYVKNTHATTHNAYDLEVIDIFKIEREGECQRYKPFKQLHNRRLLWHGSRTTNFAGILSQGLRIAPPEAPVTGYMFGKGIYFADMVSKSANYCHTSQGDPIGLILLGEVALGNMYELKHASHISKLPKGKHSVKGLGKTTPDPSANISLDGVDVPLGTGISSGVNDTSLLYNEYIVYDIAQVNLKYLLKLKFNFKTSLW
Summary of the method: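 SPA assay: nicked-DNA-activated PARP-1 (0.1–0.2 μg/ml) ADP-ribosylates biotinylated histones (2 μg/ml) using [3H]-NAD+, 20 min at RT in Tris pH 8/DTT/MgCl2, stopped with 2 mM NAD+. Blank-subtracted cpm expressed as % control; IC50 by linear interpolation, reported as pIC50 (10−5 to 3×10−9 M tested).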

[2] = test system: HCT116 cells; assay: Antiproliferative activity, Alamar Blue assay, HCT116 cells; type: cell-based, human; parameters: key to HCT116 antiproliferative activity pIC50: pIC50 = -log IC50 (IC50: conc. reducing growth to 50% of control); conditions: for IC50: Homo sapiens, HCT-116, HCT116 cells, read-out: HCT116 antiproliferative activity pIC50 (converted)
Summary of the method: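 Readout is resazurin fluorescence (ex 540, em 590 nm) after a 4 h dye incubation at 37 °C, following 4-day compound treatment of HCT116 cells plated 24 h earlier. Results expressed as % viable cells versus untreated; pIC50 derived from probit-fitted IC50.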

IC50 [1] [nM]	HCT116 antiproliferative activity pIC50 ([2]; HCT116 cells, Alamar Blue)	IC50 ([2]; Alamar Blue) [nM]	IC50 [2] [nM]	Structure (SMILES)
398		10000		CCc1cc2ccc([C@](C)(C#N)C[C@@H]3Cc4cc(C)ccc4O3)cc2[nH]c1=O (single isomer, unassigned) [Compound 400]
50.1		158		CCc1cc2ccc(C(C)(C#N)Cc3cccc(CN)c3)cc2[nH]c1=O (stereo not drawn) [Compound 290]
63.1		501		CCc1cc2ccc(C(C)(C#N)Cc3cccc(/C=C/S(C)(=O)=O)c3)cc2[nH]c1=O (stereo not drawn) [Compound 292]
398		794		CCc1c(Cl)c2ccc(C(C)(C#N)Cc3cccc(C#N)c3)cc2[nH]c1=O (stereo not drawn) [Compound 293]
251		6310		CCc1cc2cc(OC)c(C(C)(C#N)Cc3ccccc3)cc2[nH]c1=O (stereo not drawn) [Compound 294]
79.4		398		CCc1cc2ccc(C(C)(C#N)Cc3cccc(C#CCOC)c3)cc2[nH]c1=O (stereo not drawn) [Compound 297]
501		2510		CCc1cc2ccc(C(C)(C#N)Cc3cccc(C#CCN(C)C)c3)cc2[nH]c1=O (stereo not drawn) [Compound 298]
100		3980		CCc1cc2ccc(C(C)(C#N)CNCc3cccc(C#N)c3)cc2[nH]c1=O (stereo not drawn) [Compound 301]
79.4		2000		CCc1cc2ccc(C(C)(C#N)Cc3cnc(Cl)nc3Cl)cc2[nH]c1=O (stereo not drawn) [Compound 306]
631		316		COc1cc(OC)nc(CC(C)(C#N)c2ccc3cc(C)c(=O)[nH]c3c2)n1 (stereo not drawn) [Compound 308]
158		1000		CCOc1cc(OCC)nc(CC(C)(C#N)c2ccc3cc(CC)c(=O)[nH]c3c2)n1 (stereo not drawn) [Compound 309]
100		501		CCc1cc2ccc(C(C)(C#N)Cc3cccc(Cl)n3)cc2[nH]c1=O (stereo not drawn) [Compound 310]
126		3160		CCc1cc2ccc(C(C)(C#N)Cc3ncc(C)c(OC)c3C)cc2[nH]c1=O (stereo not drawn) [Compound 311]
100		2000		CCc1cc2ccc(C(C)(C#N)Cc3ccc(C)nc3)cc2[nH]c1=O (stereo not drawn) [Compound 327]
79.4		316		CCc1cc2ccc(C(C)(C#N)Cc3cccc(C#N)n3)cc2[nH]c1=O (stereo not drawn) [Compound 329]
251		5010		CCCn1ccnc1CC(C)(C#N)c1ccc2cc(CC)c(=O)[nH]c2c1 (stereo not drawn) [Compound 335]
79.4		2510		CCc1cc2ccc(C(C)(C#N)Cc3ccc4ccccc4n3)cc2[nH]c1=O (stereo not drawn) [Compound 336]
398		5010		CCc1cc2ccc(C(C)(C#N)Cc3nccn3CC)cc2[nH]c1=O (stereo not drawn) [Compound 337]
200		1580		CCc1cc2ccc(C(C)(C#N)Cc3nc4ccccc4n3C)cc2[nH]c1=O (stereo not drawn) [Compound 338]
79.4		794		CCc1cc2ccc(C(C)(C#N)Cc3cccc(C)n3)cc2[nH]c1=O (stereo not drawn) [Compound 343]
63.1		316		CCc1cc2ccc(C(C)(C#N)Cc3cccc(Br)n3)cc2[nH]c1=O (stereo not drawn) [Compound 344]

Second part, the compound before the results:

Structure (SMILES)	IC50 [1] [nM]	HCT116 antiproliferative activity pIC50 ([2]; HCT116 cells, Alamar Blue)	IC50 ([2]; Alamar Blue) [nM]	IC50 [2] [nM]
CCc1cc2ccc(C(C)(C#N)Cc3cccc(C#N)n3)cc2[nH]c1=O (single isomer, unassigned) [Compound 206]	50.1			
CCc1cc2ccc(C(C)(C#N)Cc3cccc(C#N)n3)cc2[nH]c1=O (single isomer, unassigned) [Compound 207]	39.8	7.0		
CCc1cc2ccc([C@@](C)(C#N)Cc3cccc(N(C)C)c3)cc2[nH]c1=O (single isomer, unassigned) [Compound 258]	50.1		251	
CCc1cc2ccc([C@](C)(C#N)Cc3cccc(N(C)C)c3)cc2[nH]c1=O (single isomer, unassigned) [Compound 259]	79.4		10000	
CCC[C@@](C#N)(Cc1ccccc1)c1ccc2cc(CC)c(=O)[nH]c2c1 (single isomer, unassigned) [Compound 263]	631		3160	
CCC[C@](C#N)(Cc1ccccc1)c1ccc2cc(CC)c(=O)[nH]c2c1 (single isomer, unassigned) [Compound 264]	398		10000	
CCc1cc2ccc([C@@](C)(C#N)Cc3cccc(C#N)c3)cc2[nH]c1=O (single isomer, unassigned) [Compound 268]	50.1		10000	
CCc1cc2ccc([C@](C)(C#N)Cc3cccc(C#N)c3)cc2[nH]c1=O (single isomer, unassigned) [Compound 269]	31.6		200	
C#Cc1cccc(C[C@](C)(C#N)c2ccc3cc(CC)c(=O)[nH]c3c2)c1 [Compound 2]	126		10000	
C#Cc1cccc(C[C@@](C)(C#N)c2ccc3cc(CC)c(=O)[nH]c3c2)c1 [Compound 3]	79.4		39.8	
CCc1cc2ccc(C(C#N)(CC)Cc3ccccc3)cc2[nH]c1=O (stereo not drawn) [Compound 32]	501			2000
COc1ccccc1-c1nc(CC(C)(C#N)c2ccc3cc(C)c(=O)[nH]c3c2)no1 (stereo not drawn) [Compound 33]	1260			794
Cc1cc2ccc(C(C)(C#N)Cc3cccc(C#N)c3)cc2[nH]c1=O (stereo not drawn) [Compound 34]	794			200
Cc1cc2ccc([C@@](C)(C#N)Cc3cccc(C#N)c3)cc2[nH]c1=O [Compound 35]	501			7940
Cc1cc2ccc([C@](C)(C#N)Cc3cccc(C#N)c3)cc2[nH]c1=O [Compound 36]	1580			50.1
Cc1cc2ccc(C(C)(C#N)Cc3cccc(Cl)c3)cc2[nH]c1=O (stereo not drawn) [Compound 37]	2000			316
CC(C)c1cc2ccc(C(C)(C#N)Cc3ccccc3)cc2[nH]c1=O (stereo not drawn) [Compound 38]	> 10000			> 10000
CC(=O)c1cc2ccc(C(C)(C#N)Cc3ccccc3)cc2[nH]c1=O (stereo not drawn) [Compound 39]	7940			> 10000
CCc1cc2ccc(C(C)(C#N)Cc3cccc(OC[C@@H](O)CO)c3)cc2[nH]c1=O (stereo partly drawn) [Compound 56]	100		3160	
CCc1cc2ccc(C(C)(C#N)Cc3cccc(CCC#N)c3)cc2[nH]c1=O (stereo not drawn) [Compound 169]	79.4		5010	
CCc1cc2ccc(C(C)(C#N)Cc3cccc(CNS(C)(=O)=O)c3)cc2[nH]c1=O (stereo not drawn) [Compound 170]	79.4		5010	

Structure (SMILES)	IC50 [1] [nM]	HCT116 antiproliferative activity pIC50 ([2]; HCT116 cells, Alamar Blue)	IC50 ([2]; Alamar Blue) [nM]	IC50 [2] [nM]
C=Cc1cccc(CC(C)(C#N)c2ccc3cc(CC)c(=O)[nH]c3c2)c1 (stereo not drawn) [Compound 172]	100		501	
CCc1cc2cc(F)c(C(C)(C#N)Cc3cccc(C#N)c3)cc2[nH]c1=O (stereo not drawn) [Compound 175]	200		631	
CCc1c(C)c2ccc(C(C)(C#N)Cc3cccc(C#N)c3)cc2[nH]c1=O (stereo not drawn) [Compound 181]	100		2510	
CCc1cc2cc(OCCOC)c(C(C)(C#N)Cc3cccc(C#N)c3)cc2[nH]c1=O (stereo not drawn) [Compound 182]	158		6310	
CCc1cc2ccc(C(C)(C#N)Cc3cccc(C#CCO)c3)cc2[nH]c1=O (stereo not drawn) [Compound 183]	63.1		63.1	
CCc1cc2ccc(C(F)(C#N)Cc3ccccc3)cc2[nH]c1=O (stereo not drawn) [Compound 187]	63.1		3160	
CCc1cc2ccc(C(C)(C#N)CN(C)Cc3ccccc3)cc2[nH]c1=O (stereo not drawn) [Compound 189]	398		1260	
CCc1cc2ccc(C(C)(C#N)C(C)c3ccccc3)cc2[nH]c1=O (stereo not drawn) [Compound 198]	126		2000	
CCc1cc2ccc([C@](C)(C#N)[C@@H](C)c3ccccc3)cc2[nH]c1=O [Compound 199]	79.4		10000	
CCc1cc2ccc([C@](C)(C#N)[C@H](C)c3ccccc3)cc2[nH]c1=O [Compound 200]	251		1580	
CCc1cc2ccc(C(C)(C#N)Cc3cccc(C#C[Si](C)(C)C)n3)cc2[nH]c1=O (stereo not drawn) [Compound 210]	398		501	
C#Cc1cccc(CC(C)(C#N)c2ccc3cc(CC)c(=O)[nH]c3c2)n1 (stereo not drawn) [Compound 211]	126		316	
CCc1cc2ccc(C(C)(C#N)Cc3cccc(N(C)C)n3)cc2[nH]c1=O (stereo not drawn) [Compound 213]	63.1		501	
CCc1cc2ccc(C(C)(C#N)Cc3cccc(I)n3)cc2[nH]c1=O (stereo not drawn) [Compound 214]	50.1		501	
CCOC(=O)c1cccc(CC(C)(C#N)c2ccc3cc(CC)c(=O)[nH]c3c2)n1 (stereo not drawn) [Compound 215]	398		1580	
CCc1cc2ccc(C(C)(C#N)Cc3cccc(COC)n3)cc2[nH]c1=O (stereo not drawn) [Compound 216]	398		2000	
CCc1cc2ccc(C(C)(C#N)Cc3cccc(OCCOC)n3)cc2[nH]c1=O (stereo not drawn) [Compound 219]	100		5010	
CCc1cc2ccc(C(C)(C#N)Cc3cccc(CN)n3)cc2[nH]c1=O (stereo not drawn) [Compound 221]	79.4		1260	
CCc1cc2ccc(C(C)(C#N)Cc3cccc(OCCO)c3)cc2[nH]c1=O (stereo not drawn) [Compound 262]	79.4		251	
CCc1cc2ccc(C(C)(C#N)CCOc3cccc(C(F)(F)F)c3)cc2[nH]c1=O (stereo not drawn) [Compound 274]	501		6310	
